From US12599672B2, “KRAS proteolysis targeting chimeras” (PAQ Therapeutics Inc., priority 2023, dated 2026) come the findings set out here.

Some results are limits rather than exact numbers.

Holding throughout (format): cell-based
Test [1] deals with T1, KRAS G12V (Homo sapiens, UniProt P01116, G12V).
T1 construct: SW620-KRAS (G12V)-HiBit-KI cell (Pharmaron); host or cells: SW620-KRAS (G12V)-HiBit-KI cells (HiBiT knock-in at the endogenous KRAS locus)
Kind of test: KRAS G12V HiBit assay. The note with it: SW620-KRAS (G12V)-HiBit-KI cells, compound treatment for 24 hours. Put shortly:
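Luminescence from lytic Nano-Glo HiBiT detection with LgBiT read KRAS G12V levels after 24 h compound exposure. Dilutions were 10-point, 3-fold, from a 0.3 mM DMSO stock. Degradation activity was normalised to cells given 0.1% DMSO alone.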

For test [2], the target named is T2, KRAS G12D (Homo sapiens, UniProt P01116, G12D).
T2 construct: AsPc-1-KRAS (G12D)-HiBit-KI cell (Pharmaron); host or cells: AsPc-1-KRAS (G12D)-HiBit-KI cells (HiBiT knock-in at the endogenous KRAS locus)
T2 sequence (P01116 1-188 isoform P01116-2 G12D): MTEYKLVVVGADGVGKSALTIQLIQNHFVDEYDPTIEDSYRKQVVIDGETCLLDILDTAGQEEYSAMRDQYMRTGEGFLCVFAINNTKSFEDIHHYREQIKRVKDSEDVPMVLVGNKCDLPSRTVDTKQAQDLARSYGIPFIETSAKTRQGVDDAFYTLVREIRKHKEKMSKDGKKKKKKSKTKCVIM
Kind of test: KRAS G12D HiBit assay. Conditions: AsPc-1-KRAS (G12D)-HiBit-KI cell, compound treatment for 24 hours; for DC50: absolute DC50. Put shortly:
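HiBiT luminescence, detected by adding lytic buffer, substrate and LgBiT protein, served as the KRAS G12D read-out. Compounds, serially diluted 3-fold over 10 points from 0.3 mM DMSO stock, were on cells for 24 h; percent inhibition normalized to cells given 0.1% DMSO only.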

In test [3] the target is T3, KRAS (Homo sapiens, UniProt P01116).
T3 construct: endogenous in cells; host or cells: KE39 (KRAS amplified) cells
T3 sequence (P01116 1-188 isoform P01116-2): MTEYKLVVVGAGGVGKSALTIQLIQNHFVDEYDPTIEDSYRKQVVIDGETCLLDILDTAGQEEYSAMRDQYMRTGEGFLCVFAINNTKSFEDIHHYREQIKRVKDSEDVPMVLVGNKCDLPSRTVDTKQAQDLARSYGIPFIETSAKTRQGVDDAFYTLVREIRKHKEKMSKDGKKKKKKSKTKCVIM
Kind of test: KRASamp MSD assay. The note with it: KE39 (KRAS amplified) cells, treated with test compounds for 24 hr, MSD readout of KRAS degradation. Put shortly: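 Degradation DC50 derived by curve fitting, with KRAS levels quantified by MSD electrochemiluminescence (capture/detection antibodies, recombinant WT KRAS standard). Lysates prepared from KE39 cells (KRAS amplified) exposed to test compounds for 24 hr.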

T1 sequence (P01116 1-188 isoform P01116-2 G12V): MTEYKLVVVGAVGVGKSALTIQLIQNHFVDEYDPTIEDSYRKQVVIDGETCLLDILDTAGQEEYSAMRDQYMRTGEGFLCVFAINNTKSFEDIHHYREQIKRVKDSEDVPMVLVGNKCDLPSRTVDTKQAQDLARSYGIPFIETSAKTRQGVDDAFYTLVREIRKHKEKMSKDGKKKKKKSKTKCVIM

Turning to `CCc1c(F)ccc2cc(O)cc(-c3ncc4c(N5CCN6CCCC6C5)nc(OC[C@@]56CCCN5[C@H](COC(=O)N5CCC7(CC5)CC(N5CCC(c8ccc9c(c8)n(C)c(=O)n9C8CCC(=O)NC8=O)CC5)C7)CC6)nc4c3F)c12` (stereo partly drawn) [Compound 345, ((3S,7aS)-7a-(((7-(8-ethyl-7-fluoro-3-hydroxynaphthalen-1-yl)-8-fluoro-4-(hexahydropyrrolo[1,2-a]pyrazin-2(1H)-yl)pyrido[4,3-d]pyrimidin-2-yl)oxy)methyl)hexahydro-1H-pyrrolizin-3-yl)methyl 2-(4-(1-(2,6-dioxopiperidin-3-yl)-3-methyl-2-oxo-2,3-dihydro-1H-benzo[d]imidazol-5-yl)piperidin-1-yl)-7-azaspiro[3.5]nonane-7-carboxylate], the DC50 in test [1] (class symbols) was > 100 nM; in test [2] (numeric bounds given in place of class symbols), > 100 nM; in test [3], 1 to 10 nM.

For `C#Cc1c(F)ccc2cc(O)cc(-c3ncc4c(N5CCC[C@@](C)(O)C5)nc(OCC5(CN6CCC7(CC6)CCN(c6ccc8c(c6)n(C)c(=O)n8C6CCC(=O)NC6=O)CC7)CC5)nc4c3F)c12` (some centres unmarked) [Compound 52], the DC50 in test [1] (class symbols) is < 10 nM; in test [2] (class symbols) it was < 100 nM; in test [3], ≥ 10 nM.

On to `CCc1c(F)ccc2cc(O)cc(-c3ncc4c(N5CCC[C@@](C)(O)C5)nc(OC[C@@]56CCCN5[C@H](COC(=O)N5C7CCC5CC(CN5CCC(c8ccc9c(c8)n(C)c(=O)n9C8CCC(=O)NC8=O)CC5)C7)CC6)nc4c3F)c12` (stereo partly drawn) [Compound 392, ((3S,7aS)-7a-(((7-(8-ethyl-7-fluoro-3-hydroxynaphthalen-1-yl)-8-fluoro-4-((R)-3-hydroxy-3-methylpiperidin-1-yl)pyrido[4,3-d]pyrimidin-2-yl)oxy)methyl)hexahydro-1H-pyrrolizin-3-yl)methyl 3-((4-(1-(2,6-dioxopiperidin-3-yl)-3-methyl-2-oxo-2,3-dihydro-1H-benzo[d]imidazol-5-yl)piperidin-1-yl)methyl)-8-azabicyclo[3.2.1]octane-8-carboxylate], for which the values for the DC50 in test [1] (class symbols), in test [2] (class symbols) and in test [3] were < 10 nM, < 100 nM and < 1 nM, respectively.

For `C#Cc1c(F)ccc2cc(O)cc(-c3ncc4c(N5CCC[C@@](C)(O)C5)nc(OC[C@@]56CCCN5[C@H](COC(=O)N5CCC7(CC5)CC(CN5CCC(c8ccc9c(c8)n(C)c(=O)n9C8CCC(=O)NC8=O)CC5)C7)CC6)nc4c3F)c12` (stereo partly drawn) [Compound 323, ((3S,7aS)-7a-(((7-(8-ethynyl-7-fluoro-3-hydroxynaphthalen-1-yl)-8-fluoro-4-((R)-3-hydroxy-3-methylpiperidin-1-yl)pyrido[4,3-d]pyrimidin-2-yl)oxy)methyl)hexahydro-1H-pyrrolizin-3-yl)methyl 2-((4-(1-(2,6-dioxopiperidin-3-yl)-3-methyl-2-oxo-2,3-dihydro-1H-benzo[d]imidazol-5-yl)piperidin-1-yl)methyl)-7-azaspiro[3.5]nonane-7-carboxylate], the DC50 in test [1] (class symbols) is < 10 nM; in test [2] (class symbols), < 100 nM; in test [3], 1 to 10 nM.

For the compound `CCc1c(F)ccc2cc(O)cc(-c3ncc4c(N5CCCCC5)nc(OC[C@@]56CCCN5[C@H](COC(=O)N5CCC7(CC5)CC(N5CCC(c8ccc9c(c8)n(C)c(=O)n9C8CCC(=O)NC8=O)CC5)C7)CC6)nc4c3F)c12` (stereo partly drawn) [Compound 367, ((3S,7aS)-7a-(((7-(8-ethyl-7-fluoro-3-hydroxynaphthalen-1-yl)-8-fluoro-4-(piperidin-1-yl)pyrido[4,3-d]pyrimidin-2-yl)oxy)methyl)hexahydro-1H-pyrrolizin-3-yl)methyl 2-(4-(1-(2,6-dioxopiperidin-3-yl)-3-methyl-2-oxo-2,3-dihydro-1H-benzo[d]imidazol-5-yl)piperidin-1-yl)-7-azaspiro[3.5]nonane-7-carboxylate], the DC50 in test [1] (class symbols) was < 10 nM; in test [2] (class symbols) it was < 100 nM; in test [3] it was < 1 nM.

For `CCc1c(F)ccc2cc(O)cc(-c3ncc4c(N5CCC[C@@](C)(O)C5)nc(OC[C@@]56CCCN5[C@H](COC(=O)N5CCC(CN7CCC(c8ccc9c(C%10CCC(=O)NC%10=O)nn(C)c9c8)CC7)CC5)CC6)nc4c3F)c12` (stereo partly drawn) [Compound 99, [(3S,8S)-8-[[7-(8-ethyl-7-fluoro-3-hydroxy-1-naphthyl)-8-fluoro-4-[(3R)-3-hydroxy-3-methyl-1-piperidyl]pyrido[4,3-d]pyrimidin-2-yl]oxymethyl]-1,2,3,5,6,7-hexahydropyrrolizin-3-yl]methyl 4-[[4-[3-(2,6-dioxo-3-piperidyl)-1-methyl-indazol-6-yl]-1-piperidyl]methyl]piperidine-1-carboxylate], the DC50 in test [1] (class symbols) was < 10 nM; in test [2] (class symbols), < 100 nM; in test [3], < 1 nM. Besides, the Dmax in test [2] (class symbols) is > 50%.

With `C#Cc1c(F)ccc2cc(O)cc(-c3ncc4c(N5CCC[C@@](C)(O)C5)nc(OCC5(CN6CCC7(CC6)CC(N6CCN(c8ccc9c(c8)n(C)c(=O)n9C8CCC(=O)NC8=O)CC6)C7)CC5)nc4c3F)c12` (some centres unmarked) [Compound 56], the DC50 in test [1] (class symbols) was < 10 nM; in test [2] (class symbols), < 100 nM; in test [3], < 1 nM.

For the compound `C#Cc1c(F)ccc2cc(O)cc(-c3ccc4c(N5CCC[C@@](C)(O)C5)nc(OCC5(CN6CCC(CN7CCC(c8ccc9c(c8)n(C)c(=O)n9C8CCC(=O)NC8=O)CC7)CC6)CC5)nc4c3F)c12` (some centres unmarked) [Compound 13], the DC50 in test [1] (class symbols) is < 10 nM; in test [2] (class symbols) it was < 100 nM; in test [3], < 1 nM.

Consider `CCc1c(F)ccc2cc(O)cc(-c3ncc4c(N5CCCC(F)(F)C5)nc(OC[C@@]56CCCN5[C@H](COC(=O)N5CC7(CC(N8CCC(c9ccc%10c(c9)n(C)c(=O)n%10C9CCC(=O)NC9=O)CC8)C7)C5)CC6)nc4c3F)c12` (stereo partly drawn) [Compound 469, ((3S,7aS)-7a-(((4-(3,3-difluoropiperidin-1-yl)-7-(8-ethyl-7-fluoro-3-hydroxynaphthalen-1-yl)-8-fluoropyrido[4,3-d]pyrimidin-2-yl)oxy)methyl)hexahydro-1H-pyrrolizin-3-yl)methyl 6-(4-(1-(2,6-dioxopiperidin-3-yl)-3-methyl-2-oxo-2,3-dihydro-1H-benzo[d]imidazol-5-yl)piperidin-1-yl)-2-azaspiro[3.3]heptane-2-carboxylate], for which the DC50 in test [1] (class symbols) is < 10 nM; in test [2] (class symbols), < 100 nM; in test [3], < 1 nM.

As for `C#Cc1c(F)ccc2cc(O)cc(-c3ncc4c(N5CCC[C@@](C)(O)C5)nc(OC[C@]56CCCN5[C@H](COC(=O)N5CCC(CN7CCC(c8ccc9c(c8)n(C)c(=O)n9C8CCC(=O)NC8=O)CC7)CC5)CC6)nc4c3F)c12` (some centres unmarked) [Compound 134], the DC50 was < 10 nM in test [1] (class symbols), < 100 nM in test [2] (class symbols) and < 1 nM in test [3].

Consider `C#Cc1c(F)ccc2cc(O)cc(-c3ncc4c(N5CCC[C@@](C)(O)C5)nc(OC[C@@]56CCCN5[C@@H](COC(=O)N5CCC(CN7CCC(c8ccc9c(c8)n(C)c(=O)n9C8CCC(=O)NC8=O)CC7)CC5)CC6)nc4c3F)c12` (some centres unmarked) [Compound 140], for which the DC50 was > 38.9 nM in test [1] (numeric bounds), < 100 nM in test [2] (class symbols) and < 1 nM in test [3].

`C#Cc1c(F)ccc2cc(O)cc(-c3ncc4c(N5CCCCCC5)nc(OC[C@@]56CCCN5[C@H](COC(=O)N5CCC(CN7CCC(c8ccc9c(c8)n(C)c(=O)n9C8CCC(=O)NC8=O)CC7)CC5)CC6)nc4c3F)c12` (stereo partly drawn) [Compound 123, ((3S,7aS)-7a-(((4-(Azepan-1-yl)-7-(8-ethynyl-7-fluoro-3-hydroxynaphthalen-1-yl)-8-fluoropyrido[4,3-d]pyrimidin-2-yl)oxy)methyl)hexahydro-1H-pyrrolizin-3-yl)methyl4-((4-(1-(2,6-dioxopiperidin-3-yl)-3-methyl-2-oxo-2,3-dihydro-1H-benzo[d]imidazol-5-yl)piperidin-1-yl)methyl) piperidine-1-carboxylate]: the DC50 in test [1] (class symbols) was < 10 nM; in test [2] (class symbols) it was < 100 nM; in test [3] it was < 1 nM. Further, the Dmax in test [2] (class symbols) is > 50%.

Regarding `CCc1c(F)ccc2cc(O)cc(-c3ncc4c(N5CCC[C@@](C)(O)C5)nc(OC[C@@]56CCCN5[C@H](COC(=O)N5CC7(CN(CC8CCN(c9ccc%10c(c9)n(C)c(=O)n%10C9CCC(=O)NC9=O)CC8)C7)C5)CC6)nc4c3F)c12` (stereo partly drawn) [Compound 462, ((3S,7aS)-7a-(((7-(8-ethyl-7-fluoro-3-hydroxynaphthalen-1-yl)-8-fluoro-4-((R)-3-hydroxy-3-methylpiperidin-1-yl)pyrido[4,3-d]pyrimidin-2-yl)oxy)methyl)hexahydro-1H-pyrrolizin-3-yl)methyl 6-((1-(1-(2,6-dioxopiperidin-3-yl)-3-methyl-2-oxo-2,3-dihydro-1H-benzo[d]imidazol-5-yl)piperidin-4-yl)methyl)-2,6-diazaspiro[3.3]heptane-2-carboxylate], the DC50 in test [1] (class symbols) is < 10 nM; in test [2] (class symbols), < 100 nM; in test [3], 1 to 10 nM.
